Experiments:
[1] = Dissociation constant, pKa of the compound; assay type: physicochemical
[2] = Lipophilicity, log P of the compound; assay type: physicochemical; conditions: octanol/water
[3] = target: T1, ATP-dependent translocase ABCB1 (Homo sapiens, UniProt P08183); experiment: Inhibition of P-glycoprotein in MDR human KBChR-8-5 cells assessed as uptake of vinblastin relative to control; assay type: cell-based; set-up: concentration or dose not given beside the values
[4] = target: T1, ATP-dependent translocase ABCB1; experiment: Inhibition of P-glycoprotein in MDR human KBChR-8-5 cells assessed as retention of [3H]VLB after 2 hrs; assay type: cell-based; set-up: concentration or dose not given beside the values
KB-Vi = experiment: Displacement of [3H]azidopine from human P-glycoprotein in KB-Vi cells; assay type: cell-based; set-up: concentration or dose not given beside the values
MDR = experiment: Cytotoxicity against MDR human KBChR cells; assay type: functional, cell-based

T1 sequence (P08183 whole entry): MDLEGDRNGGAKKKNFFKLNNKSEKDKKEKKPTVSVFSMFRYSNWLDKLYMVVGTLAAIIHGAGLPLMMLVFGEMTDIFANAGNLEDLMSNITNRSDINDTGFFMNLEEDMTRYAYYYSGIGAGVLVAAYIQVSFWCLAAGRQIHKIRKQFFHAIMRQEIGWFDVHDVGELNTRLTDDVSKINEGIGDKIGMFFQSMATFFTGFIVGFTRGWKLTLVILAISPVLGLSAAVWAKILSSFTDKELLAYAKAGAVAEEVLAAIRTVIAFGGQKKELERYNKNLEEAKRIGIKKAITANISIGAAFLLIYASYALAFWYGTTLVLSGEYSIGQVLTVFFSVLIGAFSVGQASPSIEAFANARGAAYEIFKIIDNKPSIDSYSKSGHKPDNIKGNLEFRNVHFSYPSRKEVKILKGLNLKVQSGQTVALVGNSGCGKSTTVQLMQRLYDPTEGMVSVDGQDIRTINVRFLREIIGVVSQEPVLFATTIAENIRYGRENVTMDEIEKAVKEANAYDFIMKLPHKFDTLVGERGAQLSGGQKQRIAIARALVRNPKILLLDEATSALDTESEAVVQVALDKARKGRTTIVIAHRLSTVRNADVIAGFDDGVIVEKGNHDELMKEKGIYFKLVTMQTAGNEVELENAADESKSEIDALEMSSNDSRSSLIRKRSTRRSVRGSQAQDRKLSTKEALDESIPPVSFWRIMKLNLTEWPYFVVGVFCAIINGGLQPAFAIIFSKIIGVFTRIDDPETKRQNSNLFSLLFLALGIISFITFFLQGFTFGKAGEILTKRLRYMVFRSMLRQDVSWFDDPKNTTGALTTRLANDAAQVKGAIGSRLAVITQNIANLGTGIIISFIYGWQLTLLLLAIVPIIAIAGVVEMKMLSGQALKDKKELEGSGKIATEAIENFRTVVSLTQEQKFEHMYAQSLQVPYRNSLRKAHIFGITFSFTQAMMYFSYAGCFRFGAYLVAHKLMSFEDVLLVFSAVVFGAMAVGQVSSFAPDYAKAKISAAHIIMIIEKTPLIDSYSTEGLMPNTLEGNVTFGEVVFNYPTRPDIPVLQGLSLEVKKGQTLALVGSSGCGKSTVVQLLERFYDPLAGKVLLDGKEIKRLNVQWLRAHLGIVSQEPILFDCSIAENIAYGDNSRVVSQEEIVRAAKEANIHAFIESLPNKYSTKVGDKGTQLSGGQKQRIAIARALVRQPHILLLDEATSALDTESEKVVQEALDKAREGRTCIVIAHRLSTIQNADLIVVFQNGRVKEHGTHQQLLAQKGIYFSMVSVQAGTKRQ

| pKa [1] | logP [2] | Activity [3] [%] | Activity [4] [%] | Structure (SMILES) | Activity (KB-Vi) [%] | IC10 (MDR) [µM] | IC50 (MDR) [µM] |
| --- | --- | --- | --- | --- | --- | --- | --- |
| 4.87 | 1.64 | 1372 | 62 | O=c1c2ccccc2n(CCCN2CCOCC2)c2ccc(Cl)cc12 | 30 | 1.15 | 10.5 |
| 5.36 | 2.01 | 1855 | 77 | O=c1c2ccccc2n(CCCCN2CCCCC2)c2ccc(Cl)cc12 | 15 | 0.6 | 5.2 |
| 5.28 | 1.74 | 1010 | 79 | O=c1c2ccccc2n(CCCCN2CCCC2)c2ccc(Cl)cc12 | 30 | 1.85 | 12.5 |
| 8.85 | 1.68 | 982 | 60.5 | O=c1c2ccccc2n(CCCCCl)c2ccc(Cl)cc12 | 70 | 1.25 | 10.8 |
| 5.39 | 1.52 | 927 | 54.5 | O=c1c2ccccc2n(CCCN2CCCCC2)c2ccc(Cl)cc12 | 50 | 1.25 | 15.5 |
| 5.37 | 1.54 | 948 | 47 | CCN(CC)CCCn1c2ccccc2c(=O)c2cc(Cl)ccc21 | 80 | 1 | 12.5 |
| 5.21 | 1.55 | 988 | 56 | O=c1c2ccccc2n(CCCN2CCCC2)c2ccc(Cl)cc12 | 50 | 0.9 | 14 |
| 4.8 | 1.67 | 1219 | 74 | O=c1c2ccccc2n(CCCCN(CCO)CCO)c2ccc(Cl)cc12 | 20 | 0.6 | 5 |
| 5.61 | 1.95 | 1420 | 75 | CN1CCN(CCCCn2c3ccccc3c(=O)c3cc(Cl)ccc32)CC1 | 20 | 0.8 | 8 |
| 4.91 | 1.89 | 1690 | 76 | O=c1c2ccccc2n(CCCCN2CCOCC2)c2ccc(Cl)cc12 | 15 | 0.72 | 6 |
| 5.26 | 1.76 | 1252 | 56.5 | O=c1c2ccccc2n(CCCN2CCN(CCO)CC2)c2ccc(Cl)cc12 | 35 | 0.74 | 7.5 |
| 8.65 | 1.38 | 880 | 40 | O=c1c2ccccc2n(CCCCl)c2ccc(Cl)cc12 | 83 | 1.35 | 15 |
| 5.28 | 1.48 | 1010 | 51 | CN1CCN(CCCn2c3ccccc3c(=O)c3cc(Cl)ccc32)CC1 | 45 | 0.8 | 9 |
| 4.8 | 1.47 | 1017 | 66 | O=c1c2ccccc2n(CCCN(CCO)CCO)c2ccc(Cl)cc12 | 40 | 1.2 | 8.7 |
| 5.45 | 1.9 | 1356 | 77.2 | CCN(CC)CCCCn1c2ccccc2c(=O)c2cc(Cl)ccc21 | 20 | 0.62 | 9.1 |
| 5.26 | 2.25 | 2010 | 80.5 | O=c1c2ccccc2n(CCCCN2CCN(CCO)CC2)c2ccc(Cl)cc12 | 10 | 0.46 | 4.5 |
| 8.29 | 2.06 | 715 | 49 | O=c1c2ccccc2[nH]c2ccc(Cl)cc12 | 85 | 1.41 | 18 |

Reference: ChEMBL document CHEMBL1140762, “Acridones circumvent P-glycoprotein-associated multidrug resistance (MDR) in cancer cells” (Bioorg Med Chem, 2008)
